According to US20080009418A1, “Selective Inhibitors” (Alchemia LTD., priority 2004, published 2008):

Tests used:
[1] = target: T1, Human δ-opioid (DOP) (Homo sapiens, UniProt P41143); assay: Radioligand binding, human δ-opioid (DOP) membranes, FlashPlate, [3H]-Bremazocine; conditions: compound at 10 μM; for A1: inhibition of radioligand binding, human δ-opioid (DOP): [3H]-Bremazocine; for A1 radioligand binding inhibition: human δ-opioid (DOP) membranes
T1 construct: purchased Perkin Elmer Biosignal
Procedure, shortened: (§1)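 Cloned human receptor membranes were coated onto FlashPlate wells and incubated with radioligand and compound (added from a 0.5 mM DMSO daughter plate) for 1 hour at room temperature in the dark. Scintillation counting gave percent inhibition, with DMSO defining total and reference ligand defining non-specific binding.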

[2] = target: T2, Human κ-Opioid (KOP) (Homo sapiens, UniProt P41145); assay: Radioligand binding, human κ-opioid (KOP) membranes, filtration, [3H]-Diprenorphine; conditions: compound at 10 μM; for A2: inhibition of radioligand binding, human κ-opioid (KOP): [3H]-Diprenorphine; for A2 radioligand binding inhibition: human κ-opioid (KOP) membranes
T2 construct: purchased Perkin Elmer Biosignal
Procedure, shortened: (§2)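 Filtration binding on cloned human receptor membranes (1 Unit/well), [125I]-Substance P for NK1 and [3H]-Diprenorphine for KOP, 1 h at room temperature. Filters PEI-presoaked, washed with cold 50 mM Tris-HCl pH 7.4, counted by scintillation; percent inhibition calculated, reference ligand defining non-specific binding.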

[3] = target: T3, Human Melanocortin (MC3) (Homo sapiens, UniProt P41968); assay: Radioligand binding, human melanocortin MC3 membranes, FlashPlate, [125I]-NDP-αMSH; conditions: compound at 10 μM; for A3: inhibition of radioligand binding, human melanocortin (MC3): [125I]-NDP-αMSH; for A3 radioligand binding inhibition: human melanocortin MC3 membranes
T3 construct: purchased Perkin Elmer Biosignal
Procedure, shortened: as §1

[4] = target: T4, Human Melanocortin (MC4) (Homo sapiens, UniProt P32245); assay: Radioligand binding, human melanocortin MC4 membranes, FlashPlate, [125I]-NDP-αMSH; conditions: compound at 10 μM; for A4: inhibition of radioligand binding, human melanocortin (MC4): [125I]-NDP-αMSH; for A4 radioligand binding inhibition: human melanocortin MC4 membranes
T4 construct: purchased Perkin Elmer Biosignal
Procedure, shortened: as §1

[5] = target: T5, Human melanocortin (MC5) (Homo sapiens, UniProt P33032); assay: Radioligand binding, human melanocortin MC5 membranes, FlashPlate, [125I]-NDP-αMSH; conditions: compound at 10 μM; for A5: inhibition of radioligand binding, human melanocortin (MC5): [125I]-NDP-αMSH; for A5 radioligand binding inhibition: human melanocortin MC5 membranes
T5 construct: purchased Perkin Elmer Biosignal
Procedure, shortened: as §1

[6] = target: T6, Human melanin-concentrating hormone (MCH1) (Homo sapiens, UniProt Q99705); assay: Radioligand binding, human melanin-concentrating hormone MCH1 membranes, FlashPlate, [125I]-S36057; conditions: compound at 10 μM; for A6: inhibition of radioligand binding, human melanin-concentrating hormone (MCH1): [125I]-S36057; for A6 radioligand binding inhibition: human MCH1 membranes
T6 construct: purchased Perkin Elmer Biosignal
Procedure, shortened: as §1

[7] = target: T7, Human μ-opioid (MOP) (Homo sapiens, UniProt P35372); assay: Radioligand binding, human μ-opioid (MOP) membranes, FlashPlate, [3H]-Naloxone; conditions: compound at 10 μM; for A7: inhibition of radioligand binding, human μ-opioid (MOP): [3H]-Naloxone; for A7 radioligand binding inhibition: human μ-opioid (MOP) membranes
T7 construct: purchased Perkin Elmer Biosignal
Procedure, shortened: as §1

[8] = target: T8, Human neurokinin (NK1) (Homo sapiens, UniProt P25103); assay: Radioligand binding, human neurokinin NK1 membranes, filtration, [125I]-Substance P; conditions: compound at 10 μM; for A8: inhibition of radioligand binding, human neurokinin (NK1): [125I]-Substance P; for A8 radioligand binding inhibition: human neurokinin NK1 membranes
T8 construct: purchased Perkin Elmer Biosignal
Procedure, shortened: as §2

[9] = target: T9, Human neuropeptide Y (NPY-Y1) (Homo sapiens, UniProt P25929); assay: Radioligand binding, human neuropeptide Y NPY-Y1 membranes, FlashPlate, [125I]-PYY; conditions: compound at 10 μM; for A9: inhibition of radioligand binding, human neuropeptide Y (NPY-Y1): [125I]-PYY; for A9 radioligand binding inhibition: human NPY-Y1 membranes
T9 construct: purchased Perkin Elmer Biosignal
T9 sequence (P25929 1-384): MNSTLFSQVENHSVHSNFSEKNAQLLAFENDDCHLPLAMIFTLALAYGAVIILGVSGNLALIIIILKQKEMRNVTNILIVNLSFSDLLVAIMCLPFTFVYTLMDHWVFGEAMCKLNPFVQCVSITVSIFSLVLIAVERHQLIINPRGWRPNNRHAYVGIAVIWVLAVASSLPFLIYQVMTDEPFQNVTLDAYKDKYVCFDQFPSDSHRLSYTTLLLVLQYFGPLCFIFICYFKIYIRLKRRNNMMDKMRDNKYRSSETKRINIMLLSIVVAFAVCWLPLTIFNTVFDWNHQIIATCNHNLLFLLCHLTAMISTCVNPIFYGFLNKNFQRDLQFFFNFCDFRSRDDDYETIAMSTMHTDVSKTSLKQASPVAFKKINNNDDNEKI
Procedure, shortened: as §1

[10] = target: T10, Human opioid (ORL1) (Homo sapiens, UniProt P41146); assay: Radioligand binding, human opioid ORL1 membranes, FlashPlate, [125I]-Nociceptin; conditions: compound at 10 μM; for A10: inhibition of radioligand binding, human opioid (ORL1): [125I]-Nociceptin; for A10 radioligand binding inhibition: human ORL1 membranes
T10 construct: purchased Perkin Elmer Biosignal
Procedure, shortened: as §1

[11] = target: T11, Mouse urotensin (mUR2) (Mus musculus, UniProt Q8VIH9); assay: Radioligand binding, mouse urotensin mUR2 membranes, FlashPlate, [125I]-Urotensin II; conditions: compound at 10 μM; for A11: inhibition of radioligand binding, mouse urotensin (mUR2): [125I]-Urotensin II; for A11 radioligand binding inhibition: mouse urotensin mUR2 membranes
T11 construct: purchased Perkin Elmer Biosignal
T11 sequence (Q8VIH9 1-385): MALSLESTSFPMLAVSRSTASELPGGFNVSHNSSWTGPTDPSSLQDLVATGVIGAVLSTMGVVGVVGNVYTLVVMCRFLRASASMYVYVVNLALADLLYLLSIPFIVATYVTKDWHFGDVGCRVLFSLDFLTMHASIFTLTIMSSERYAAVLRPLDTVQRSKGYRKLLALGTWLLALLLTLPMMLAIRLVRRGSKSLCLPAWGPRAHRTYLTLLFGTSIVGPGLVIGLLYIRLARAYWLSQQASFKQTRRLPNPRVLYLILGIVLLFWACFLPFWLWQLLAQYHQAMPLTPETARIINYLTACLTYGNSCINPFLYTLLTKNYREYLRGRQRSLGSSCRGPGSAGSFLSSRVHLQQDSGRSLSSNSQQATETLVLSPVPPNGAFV
Procedure, shortened: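 Cloned mouse urotensin (mUR2) receptor membranes from Perkin Elmer Biosignal were immobilized in FlashPlate microplates using a proprietary coating. Each well got 19.5 μl buffer, then 0.5 μl of DMSO, reference ligand, or compound. Adding 5 μl of [125I]-Urotensin II, diluted to 5× final concentration in binding buffer, started binding. Plates were sealed with TopSeal-A and incubated 1 hour at room temperature in the dark. Wells were counted for 30 seconds each on a TopCount after a 60-second delay, and percentage inhibition was calculated.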

T4 sequence (P32245 whole entry): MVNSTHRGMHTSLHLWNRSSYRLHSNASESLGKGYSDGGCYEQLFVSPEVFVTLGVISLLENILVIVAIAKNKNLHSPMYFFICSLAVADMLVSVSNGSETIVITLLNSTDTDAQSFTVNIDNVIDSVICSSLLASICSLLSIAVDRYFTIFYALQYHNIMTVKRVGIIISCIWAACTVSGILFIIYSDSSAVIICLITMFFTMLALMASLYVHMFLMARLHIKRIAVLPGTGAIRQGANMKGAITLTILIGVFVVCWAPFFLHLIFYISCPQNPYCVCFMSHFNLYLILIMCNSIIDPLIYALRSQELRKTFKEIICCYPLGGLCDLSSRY
T5 sequence (P33032 whole entry): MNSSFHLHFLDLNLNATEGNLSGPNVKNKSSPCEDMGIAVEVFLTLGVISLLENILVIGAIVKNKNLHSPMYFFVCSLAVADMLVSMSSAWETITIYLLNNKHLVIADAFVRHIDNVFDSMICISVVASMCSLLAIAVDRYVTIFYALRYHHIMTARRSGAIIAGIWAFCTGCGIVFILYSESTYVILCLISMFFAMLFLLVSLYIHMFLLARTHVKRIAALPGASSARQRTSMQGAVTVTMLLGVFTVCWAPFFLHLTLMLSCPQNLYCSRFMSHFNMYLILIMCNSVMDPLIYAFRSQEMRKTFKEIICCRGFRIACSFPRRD
T8 sequence (P25103 whole entry): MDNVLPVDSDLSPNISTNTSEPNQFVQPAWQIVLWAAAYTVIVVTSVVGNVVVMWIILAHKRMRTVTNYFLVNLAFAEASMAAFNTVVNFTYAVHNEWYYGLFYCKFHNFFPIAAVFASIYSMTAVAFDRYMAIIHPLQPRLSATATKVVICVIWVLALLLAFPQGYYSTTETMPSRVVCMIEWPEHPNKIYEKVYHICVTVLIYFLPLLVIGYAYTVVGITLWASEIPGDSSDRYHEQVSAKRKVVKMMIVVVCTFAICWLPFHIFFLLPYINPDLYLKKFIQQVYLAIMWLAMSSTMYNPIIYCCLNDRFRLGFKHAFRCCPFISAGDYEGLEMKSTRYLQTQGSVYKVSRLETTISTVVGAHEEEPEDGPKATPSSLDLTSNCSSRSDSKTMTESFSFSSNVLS
T2 sequence (P41145 whole entry): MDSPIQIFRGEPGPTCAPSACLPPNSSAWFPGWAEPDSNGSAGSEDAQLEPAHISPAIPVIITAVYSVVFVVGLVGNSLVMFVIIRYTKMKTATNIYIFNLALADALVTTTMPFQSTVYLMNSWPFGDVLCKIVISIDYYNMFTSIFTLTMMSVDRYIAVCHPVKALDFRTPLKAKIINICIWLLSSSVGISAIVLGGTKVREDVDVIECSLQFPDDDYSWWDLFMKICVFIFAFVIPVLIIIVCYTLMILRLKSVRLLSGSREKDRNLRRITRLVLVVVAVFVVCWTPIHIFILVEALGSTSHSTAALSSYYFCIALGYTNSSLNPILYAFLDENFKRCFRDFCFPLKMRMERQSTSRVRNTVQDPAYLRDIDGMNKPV
T3 sequence (P41968 whole entry): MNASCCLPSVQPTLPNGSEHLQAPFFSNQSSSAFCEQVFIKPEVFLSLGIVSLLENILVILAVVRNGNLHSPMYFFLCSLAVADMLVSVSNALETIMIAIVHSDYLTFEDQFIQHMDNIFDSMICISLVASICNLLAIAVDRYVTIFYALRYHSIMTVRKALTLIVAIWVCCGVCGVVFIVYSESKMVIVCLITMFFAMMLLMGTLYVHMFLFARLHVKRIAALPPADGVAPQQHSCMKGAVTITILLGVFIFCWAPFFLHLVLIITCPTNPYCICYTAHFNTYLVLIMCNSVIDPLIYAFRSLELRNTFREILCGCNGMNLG
T6 sequence (Q99705 whole entry): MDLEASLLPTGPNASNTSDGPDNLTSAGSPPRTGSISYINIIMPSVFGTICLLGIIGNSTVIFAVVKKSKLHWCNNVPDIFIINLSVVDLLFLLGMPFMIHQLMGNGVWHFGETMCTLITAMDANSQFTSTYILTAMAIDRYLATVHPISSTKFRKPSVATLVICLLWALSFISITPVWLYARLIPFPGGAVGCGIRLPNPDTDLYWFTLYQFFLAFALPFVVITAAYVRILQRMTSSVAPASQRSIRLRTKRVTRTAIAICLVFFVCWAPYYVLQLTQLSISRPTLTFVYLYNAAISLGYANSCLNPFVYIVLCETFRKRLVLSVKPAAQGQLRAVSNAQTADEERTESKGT
T10 sequence (P41146 whole entry): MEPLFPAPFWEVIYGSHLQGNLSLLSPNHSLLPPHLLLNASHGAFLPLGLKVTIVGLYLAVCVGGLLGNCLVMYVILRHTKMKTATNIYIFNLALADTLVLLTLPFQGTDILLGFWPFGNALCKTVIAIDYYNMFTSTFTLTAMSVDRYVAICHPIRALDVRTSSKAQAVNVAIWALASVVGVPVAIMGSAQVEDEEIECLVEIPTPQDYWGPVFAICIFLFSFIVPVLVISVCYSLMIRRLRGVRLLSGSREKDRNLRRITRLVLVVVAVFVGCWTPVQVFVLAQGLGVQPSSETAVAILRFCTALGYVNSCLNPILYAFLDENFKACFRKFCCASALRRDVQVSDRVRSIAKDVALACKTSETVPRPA
T1 sequence (P41143 whole entry): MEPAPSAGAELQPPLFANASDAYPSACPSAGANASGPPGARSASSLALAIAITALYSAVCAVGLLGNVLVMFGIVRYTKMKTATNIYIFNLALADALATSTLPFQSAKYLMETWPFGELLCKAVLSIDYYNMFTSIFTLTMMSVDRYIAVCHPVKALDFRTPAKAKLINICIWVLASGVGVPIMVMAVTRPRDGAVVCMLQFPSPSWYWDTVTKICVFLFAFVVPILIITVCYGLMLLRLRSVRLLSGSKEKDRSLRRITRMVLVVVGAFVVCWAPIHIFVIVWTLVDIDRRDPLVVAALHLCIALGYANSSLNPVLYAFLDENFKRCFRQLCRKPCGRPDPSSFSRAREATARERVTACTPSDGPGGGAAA
T7 sequence (P35372 whole entry): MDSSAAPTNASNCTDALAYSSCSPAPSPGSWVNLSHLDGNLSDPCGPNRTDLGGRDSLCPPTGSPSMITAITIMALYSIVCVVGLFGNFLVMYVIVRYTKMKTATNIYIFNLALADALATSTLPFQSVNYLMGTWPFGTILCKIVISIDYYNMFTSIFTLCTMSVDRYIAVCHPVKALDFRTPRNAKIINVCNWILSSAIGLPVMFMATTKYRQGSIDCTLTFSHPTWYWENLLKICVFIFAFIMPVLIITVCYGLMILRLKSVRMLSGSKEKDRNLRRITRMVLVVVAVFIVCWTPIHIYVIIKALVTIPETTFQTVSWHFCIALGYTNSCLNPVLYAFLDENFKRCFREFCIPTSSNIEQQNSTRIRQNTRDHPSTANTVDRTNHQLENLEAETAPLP

Structure (SMILES)	A4: inhibition of radioligand binding, human melanocortin (MC4) [4]	A5: inhibition of radioligand binding, human melanocortin (MC5) [5]	A6: inhibition of radioligand binding, human melanin-concentrating hormone (MCH1) [6]	A8: inhibition of radioligand binding, human neurokinin (NK1) [8]	A9: inhibition of radioligand binding, human neuropeptide Y (NPY-Y1) [9]	A10: inhibition of radioligand binding, human opioid (ORL1) [10]	A11: inhibition of radioligand binding, mouse urotensin (mUR2) [11]	A1 radioligand binding inhibition [1]	A2 radioligand binding inhibition [2]	A3 radioligand binding inhibition [3]	A4 radioligand binding inhibition [4]	A5 radioligand binding inhibition [5]	A6 radioligand binding inhibition [6]	A7 radioligand binding inhibition [7]	A8 radioligand binding inhibition [8]	A9 radioligand binding inhibition [9]	A10 radioligand binding inhibition [10]	A11 radioligand binding inhibition [11]	also measured
COC[C@H]1OC(OCc2ccc(-c3ccccc3)cc2)[C@H](NC(=O)CCCNC(=N)N)[C@@H](OCc2ccc(-c3ccccc3)cc2)[C@@H]1O (single isomer, unassigned) [compound 335]	+ (“+” indicates greater than 50% inhibition at 10 μM)	+ (“+” indicates greater than 50% inhibition at 10 μM)	+ (“+” indicates greater than 50% inhibition at 10 μM)	+ (“+” indicates greater than 50% inhibition at 10 μM)	− (“−” indicates less than 50% inhibition at 10 μM)	− (“−” indicates less than 50% inhibition at 10 μM)	− (“−” indicates less than 50% inhibition at 10 μM)	–	–	–	–	–	–	–	–	–	–	–	A1: inhibition of radioligand binding, human δ-opioid (DOP) ([1]; 10 µM): + (“+” indicates greater than 50% inhibition at 10 μM); A2: inhibition of radioligand binding, human κ-opioid (KOP) ([2]; 10 µM): + (“+” indicates greater than 50% inhibition at 10 μM); A3: inhibition of radioligand binding, human melanocortin (MC3) ([3]; 10 µM): + (“+” indicates greater than 50% inhibition at 10 μM); A7: inhibition of radioligand binding, human μ-opioid (MOP) ([7]; 10 µM): + (“+” indicates greater than 50% inhibition at 10 μM)
CO[C@H]1[C@H](O)[C@@H](COCc2ccc3ccccc3c2)OC(OCc2ccc(-c3ccccc3)cc2)[C@@H]1NC(=O)CCNC(=N)N (stereo partly shown) [compound 56]	–	–	–	–	–	–	–	− (“−” indicates less than 50% inhibition at 10 μM)	− (“−” indicates less than 50% inhibition at 10 μM)	− (“−” indicates less than 50% inhibition at 10 μM)	− (“−” indicates less than 50% inhibition at 10 μM)	+ (“+” indicates greater than 50% inhibition at 10 μM)	− (“−” indicates less than 50% inhibition at 10 μM)	+ (“+” indicates greater than 50% inhibition at 10 μM)	+ (“+” indicates greater than 50% inhibition at 10 μM)	− (“−” indicates less than 50% inhibition at 10 μM)	− (“−” indicates less than 50% inhibition at 10 μM)	− (“−” indicates less than 50% inhibition at 10 μM)	–
CO[C@H]1[C@H](O)[C@@H](COCc2ccc(-c3ccccc3)cc2)OC(OCc2ccc3ccccc3c2)[C@@H]1NC(=O)CNC(=N)N (stereo partly shown) [compound 66]	–	–	–	–	–	–	–	− (“−” indicates less than 50% inhibition at 10 μM)	− (“−” indicates less than 50% inhibition at 10 μM)	+ (“+” indicates greater than 50% inhibition at 10 μM)	+ (“+” indicates greater than 50% inhibition at 10 μM)	+ (“+” indicates greater than 50% inhibition at 10 μM)	+ (“+” indicates greater than 50% inhibition at 10 μM)	+ (“+” indicates greater than 50% inhibition at 10 μM)	+ (“+” indicates greater than 50% inhibition at 10 μM)	− (“−” indicates less than 50% inhibition at 10 μM)	− (“−” indicates less than 50% inhibition at 10 μM)	− (“−” indicates less than 50% inhibition at 10 μM)	–
CO[C@H]1[C@H](O)[C@@H](COCc2ccc(Cl)cc2)OC(OCc2ccccc2)[C@@H]1NC(=O)CNC(=N)N (stereo partly shown) [compound 90]	–	–	–	–	–	–	–	− (“−” indicates less than 50% inhibition at 10 μM)	− (“−” indicates less than 50% inhibition at 10 μM)	− (“−” indicates less than 50% inhibition at 10 μM)	− (“−” indicates less than 50% inhibition at 10 μM)	− (“−” indicates less than 50% inhibition at 10 μM)	− (“−” indicates less than 50% inhibition at 10 μM)	− (“−” indicates less than 50% inhibition at 10 μM)	+ (“+” indicates greater than 50% inhibition at 10 μM)	− (“−” indicates less than 50% inhibition at 10 μM)	− (“−” indicates less than 50% inhibition at 10 μM)	− (“−” indicates less than 50% inhibition at 10 μM)	–
COCC1OC(OCc2ccc3ccccc3c2)C(NC(=O)CCNC(=N)N)C(OCc2ccc3ccccc3c2)C1O (stereo not shown) [compound 547]	− (“−” indicates less than 50% inhibition at 10 μM)	− (“−” indicates less than 50% inhibition at 10 μM)	+ (“+” indicates greater than 50% inhibition at 10 μM)	+ (“+” indicates greater than 50% inhibition at 10 μM)	− (“−” indicates less than 50% inhibition at 10 μM)	− (“−” indicates less than 50% inhibition at 10 μM)	− (“−” indicates less than 50% inhibition at 10 μM)	–	–	–	–	–	–	–	–	–	–	–	A1: inhibition of radioligand binding, human δ-opioid (DOP) [1]: − (“−” indicates less than 50% inhibition at 10 μM); A2: inhibition of radioligand binding, human κ-opioid (KOP) [2]: − (“−” indicates less than 50% inhibition at 10 μM); A3: inhibition of radioligand binding, human melanocortin (MC3) [3]: − (“−” indicates less than 50% inhibition at 10 μM); A7: inhibition of radioligand binding, human μ-opioid (MOP) [7]: − (“−” indicates less than 50% inhibition at 10 μM)
